{"source": "patent US8653040B2", "about": "“Compositions containing sesamin-class compound(s) and quercetin glycoside(s)” (Suntory Holdings Limited, priority 2007, dated 2014)", "experiment": "Blood (plasma) concentration of sesamin and episesamin in rats after oral administration of the mixture of sesamin-class compounds alone or simultaneously with a test substance (LC-MS/MS)", "conditions": "Example 3, 10 mg/kg sesamin-class compounds plus 200 μmol/kg test flavonoid glycoside in 0.5% CMC suspension", "procedure": "SD (IGS) male rats (7-wk old) were purchased from CHARLES RIVER JAPAN INC. and habituated in the test environment for a week; the animals that were seen to grow normally were selected and subjected to the test. […] After adding an internal standard (UDESMIN; Funakoshi Co., Ltd.) to the samples, solid-phase extraction was performed with Oasis HLB and the resulting solution was concentrated under vacuum, suspended in methanol, passed through a filter, and subjected to LC-MS/MS for quantification of sesamin. The quantities of the sesamin-class compounds were determined from the ratio between their peak area and that of UDESMIN used as the internal standard. […]"}
{"substance": "αG-hesperidin", "values": [{"measurement": "bodily absorption amount (AUC) of the sesamin-class compounds relative to the control", "value": 0.71, "unit": "times"}]}
